The text below walks through data of US20040138311A1, “Medicament containing an effector of the glutathione metabolism together with $g(a)-lipoic acid for treating diabetes mellitus” (priority 2001, published 2004).

Each structure is given as a SMILES string. Structures can show the parent of a compound that is named as a salt.

Common to all, as to type: cell-based, human
Test [1] has as its system peritoneal macrophages. As to the kind of experiment: Degree of differentiation and activation of peritoneal macrophages (CD15, CD11c, CD69, CD71 cytofluorimetry). The note with it: Control = 1.0; after 6 days of incubation; α-lipoic acid 50 μM, ambroxol 10 μM, enalapril 5 μM, captopril 10 μM.
The subject of test [2] is peritoneal macrophages. The description is as above. The conditions noted are these: Control = 1.0; after 6 days of incubation; α-lipoic acid 50 μM, ambroxol 10 μM, enalapril 5 μM, captopril 10 μM. As to the method:
Peritoneal macrophages were isolated from patients during renal replacement therapy using the method described in Example 3 and cultivated in the presence of the combinations of α-lipoic acid and effectors of the glutathione metabolism according to the invention. After 6 days of incubation, the degree of differentiation of the peritoneal macrophages was determined by means of the expression of the cell surface antigens CD15 and CD11c, and the degree of cellular activation was determined using cytofluorimetry by means of the co-expression of the activation antigens CD69 to CD15-positive cells and CD71 to […] cells.
The source holds these as a separate data set.

Test [3] has as its system T-lymphocytes. As to the kind of experiment: Activation markers CD69, CD25, CD71 of PHA-stimulated T-lymphocytes (activation index). The note with it: thiol-deficient cells, 1.0 μg/ml phytohemagglutinin, culture time 72 hours; normal = 1.0. Here is the method: In the cultivation experiment described with reference to Example 1, human T-lymphocytes were stimulated with 1.0 μg/ml phytohemagglutinin. In a culture time of 72 hours, specific markers of the cellular activation were quantitatively detected using cytofluorimetery by means of monoclonal antibodies. The influence of the combinations used according to the invention on the activation markers CD69 (early activation antigen), CD25 (intermediate activation antigen) and CD71 (late activation antigen) of T-lymphocytes was measured. […] It can thus be concluded that the normalization of the cellular thiol status achieved by the combined use of α-lipoic acid and the respective effectors of the glutathione metabolism is accompanied by a restitution of cell function.

For test [4], the system named is peritoneal macrophages. The test is described as follows: Phagocytosis capacity of peritoneal macrophages (cytofluorimetric test with opsonized fluorochrome-marked bacteria). The conditions noted are these: treatment time of 6 days. As to the method: Peritoneal macrophages were isolated using a method analogous to the method described in Example 3 and cultivated ex vivo. The phagocytosis capacity was determined by a cytofluorimetric test on the single-cell level. The macrophages were thereby co-cultivated with opsonized and fluorochrome-marked bacteria. The number of bacteria absorbed during a defined period was determined quantitatively by means of the fluorescence intensity in the macrophages and was used as a measurement for their phagocytosis capacity. The influence of the combinations used according to the invention on the phagocytosis capacity of the peritoneal macrophages after a treatment time of 6 days is presented in the following table.

In test [5] the test system is peritoneal macrophages. The test is described as follows: Intracellular thiol expression of peritoneal macrophages from peritoneal dialysis patients. The conditions noted are these: time kinetic over 14 days. As to the method: Peritoneal macrophages were isolated from the effluate of peritoneal dialysis of patients with a high degree of renal insufficiency, absorbed in a cell culture medium and incubated in a gasifying incubation cabinet at 37° C., a relative humidity of 98% and 7.5% relative air-CO2 content. To investigate the influence of the combinations used according to the invention on the thiol status of the peritoneal macrophages, individual fractions were treated with α-lipoic acid, the effectors of the glutathione metabolism ambroxol or the ACE inhibitor enalapril and with the combination of α-lipoic acid/ambroxol or α-lipoic acid/enalapril, while an additional fraction was maintained as an untreated control. The cellular thiol status was determined using the measurement methods described in Example 1. FIG. 4 illustrates the effect of the combination of α-lipoic acid and ambroxol (FIG. 4a) and α-lipoic acid and enalapril (FIG. 4b) in a time kinetic over 14 days […].

For test [6], the system named is lymphocytes (peripheral immune cells). As to the kind of experiment: Membrane-bound thiol expression of thiol-depleted peripheral immune cells (CMTMR flow cytofluorimetry). The note with it: α-lipoic acid 50 μM, captopril 10 μM, combination at the same concentrations. Here is the method: Peripheral immune cells from healthy donors (n=9) were isolated from the peripheral blood. The major fraction of the resulting total population of mononuclear cells regularly represents lymphocytes with a relative percentage of approximately 90%, depending on the donor. 10% of the mononuclear cells are represented by monocytes. The mononuclear cells obtained were absorbed in special cell culture media and incubated in a gasifying incubation cabinet at 37° C., a relative humidity of 98% and 5% relative air-CO2 content. […] To test the influence of the combinations used according to the invention on the thiol status of thiol-deficient immune cells, these cells were artificially thiol-depleted. This process was carried out using proven methods by cultivation in thiol-deficient media (RPMI 1603). Comparative cultures using complete media (RPMI) 1640) were used to define the best possible normal value under the culture conditions. The expression of membrane-bound thiol groups was also determined using flow cytofluorimetry. In this case, chloromethyltetramethyl rhodamine (CMTMR) was used as thiol conjugate under the conditions of a blocked membrane potential and an inhibited diffusion capacity of the cells. The fluorescence intensity of the fluorochrome molecules bound to the cell membrane is in turn proportional to the number of thiol groups on the cell surface. The results obtained with this experimental investigation of the influence of the combinations according to the invention on the expression of cell membrane bound thiols are presented in FIG. 2 for the combinations of α-lipoic acid and ambroxol (FIG. 2a) and α-lipoic acid and enalapril (FIG. 2b). The following table presents the results for the combination of α-lipoic acid and captopril.

In test [1], `CCOC(=O)[C@H](CCc1ccccc1)NC(C)C(=O)N1CCCC1C(=O)O` (stereo in doubt) [Enalapril, 1-{N-[(S)-1-ethoxycarbonyl-3-phenylpropyl]-L-alanyl}-L-prolin] displayed a CD11c/71 co-expression of 1.10 ± 0.14. For the same compound, in test [2], the CD11c expression amounted to 1.23 ± 0.22, the CD15/69 co-expression was determined as 1.19 ± 0.12 and the CD15 expression was determined as 1.21 ± 0.22. For the same compound, the “Effect on the activation index of T-lymphocytes (CD69, CD25, CD71; in words)” value in test [3] is given as “equivalent to α-lipoic acid only in the case of the effectuation of the CD25 antigen”. Further, in test [4], the “Phagocytosis rate higher than that of the untreated control by a factor of” value was 1.53.
`Nc1c(Br)cc(Br)cc1CNC1CCC(O)CC1` (centres unmarked) [Ambroxol, hydrochloride]: the CD11c/71 co-expression in test [1] was 0.96 ± 0.1. For the same compound, the “Effect on cellular thiol expression of peritoneal macrophages (in words)” value in test [5] is recorded as “had no effect”. In test [2], the CD11c expression is reported as 1.01 ± 0.09 and the CD15 expression stood at 0.98 ± 0.13. In addition, the “Effect on the activation index of T-lymphocytes (CD69, CD25, CD71; in words)” value in test [3] is “does not have any influence on one of the three activation markers”. In addition, the “Phagocytosis rate higher than that of the untreated control by a factor of” value in test [4] was found to be 1.35.
In test [1], `C[C@H](CS)C(=O)N1CCC[C@H]1C(=O)O` [Captopril, 1-[(2S)-3-mercapto-2-methylpropionyl]-L-prolin] returned a CD11c/71 co-expression of 1.52 ± 0.16. Moreover, in test [2], the CD11c expression worked out at 1.26 ± 0.24. Moreover, the CD15/69 co-expression in test [2] is 1.69 ± 0.21. For the same compound, the CD15 expression in test [2] amounted to 1.19 ± 0.14. For the same compound, the Membrane-resistant thiol expression in test [6] (length of culture 0 d) is 2.37 ± 0.45 mfiBeads/Ratio; in test [6] (length of culture 1 d), 2.63 ± 0.39 mfiBeads/Ratio; in test [6] (length of culture 2 d) it was 2.54 ± 0.41 mfiBeads/Ratio; in test [6] (length of culture 3 d), 2.52 ± 0.38 mfiBeads/Ratio; in test [6] (length of culture 4 d), 2.50 ± 0.41 mfiBeads/Ratio; in test [6] (length of culture 6 d), 2.46 ± 0.50 mfiBeads/Ratio. Further, the Membrane-resistant thiol expression worked out at 2.01 ± 0.39 mfiBeads/Ratio in test [6] (length of culture 8 d), 1.68 ± 0.29 mfiBeads/Ratio in test [6] (length of culture 10 d), 1.02 ± 0.51 mfiBeads/Ratio in test [6] (length of culture 12 d) and 0.99 ± 0.46 mfiBeads/Ratio in test [6] (length of culture 14 d).
